Some test systems named below: OVCAR-5 ovarian; OVCAR-4 ovarian; U251 CNS; HS 578T breast; HT29 colon; RXF 393 renal; NCI-H226 lung; HCT-15 colon; A498 renal; OVCAR-3 ovarian.
What all share (assay): DTP human tumour cell line panel, 48 h

The structures appear in SMILES notation.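 Five concentrations, 48 hours, 96-well plates. Here, GI50 denotes the concentration required for 50% inhibition of growth. TGI: concentration producing complete growth inhibition.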

Usually GI50 stands for the concentration giving 50% growth inhibition. Usually TGI stands for the concentration giving total growth inhibition. A low value points to more potent growth arrest. Consider `C/C1=C/C(=O)O[C@@H]2C[C@@H](CC[C@H](C)/C=C\C=C\CC1)O[C@@](OCCc1ccccc1)([C@@H]1CSC(=O)N1)C2`, for which the 50% growth inhibitory concentration (GI50) with OVCAR-5 ovarian is 55.4 nM; with OVCAR-4 ovarian, 225 nM; with U251 CNS it was 189 nM; in the assay on HS 578T breast, 28 nM; in the assay on HT29 colon, 79.3 nM; in the assay on RXF 393 renal it was 36.3 nM. Further, the 50% growth inhibitory concentration (GI50) in the assay on NCI-H226 lung is 98.5 nM; with HCT-15 colon, 90 nM; with A498 renal it was 31.3 nM; with OVCAR-3 ovarian, 170 nM. Moreover, the TGI was over 17500 nM with OVCAR-5 ovarian; over 5440 nM in the assay on OVCAR-4 ovarian; over 17500 nM in the assay on U251 CNS; 97.3 nM with HS 578T breast; over 15000 nM with HT29 colon; 158 nM with RXF 393 renal. The TGI in the assay with NCI-H226 lung was over 17500 nM; with HCT-15 colon, over 17500 nM; in the assay with A498 renal, 133 nM; with OVCAR-3 ovarian, 607 nM.

Regarding `CN1CCN(c2ccc(NC3=C(Cl)C(=O)c4ncccc4C3=O)cc2C#N)CC1`, the GI50 in the assay on OVCAR-5 ovarian is 2750 nM; in the assay on OVCAR-4 ovarian it was 1090 nM; in the assay on U251 CNS, 2010 nM; in the assay on HS 578T breast, 2140 nM; in the assay on HT29 colon, 2160 nM; with RXF 393 renal it was 1400 nM. The GI50 in the assay on NCI-H226 lung was 16800 nM; with HCT-15 colon, 1640 nM; in the assay on A498 renal it was 11700 nM; with OVCAR-3 ovarian, 229 nM. In addition, the TGI with OVCAR-5 ovarian was determined as 7300 nM; with OVCAR-4 ovarian, 2360 nM; in the assay on U251 CNS, 4440 nM; in the assay with HS 578T breast it was 5470 nM; in the assay with HT29 colon it was 5140 nM; in the assay with RXF 393 renal, 2730 nM. Moreover, the total growth inhibition concentration (TGI) with NCI-H226 lung turned out to be 36300 nM; with HCT-15 colon, 3530 nM; in the assay on A498 renal, 25300 nM; in the assay on OVCAR-3 ovarian it was 1000 nM.

On to `C/C1=C\C/C=C(\C)[C@H]2CC(CC/C(C)=C/CC1)[C@](C)(C=O)O2`, for which the GI50 in the assay on OVCAR-5 ovarian is over 100000 nM; in the assay with OVCAR-4 ovarian, over 100000 nM; with U251 CNS, 43900 nM; with HS 578T breast, over 100000 nM; in the assay with HT29 colon it was over 100000 nM; with RXF 393 renal, over 100000 nM. In addition, the GI50 was over 100000 nM with NCI-H226 lung, over 100000 nM in the assay with HCT-15 colon, 92200 nM in the assay with A498 renal and 76400 nM in the assay on OVCAR-3 ovarian. In addition, the concentration for total growth inhibition (TGI) with OVCAR-5 ovarian, in the assay on OVCAR-4 ovarian, in the assay on U251 CNS, in the assay with HS 578T breast, with HT29 colon and in the assay on RXF 393 renal was over 100000 nM each time. The TGI in the assay with NCI-H226 lung, in the assay with HCT-15 colon, in the assay on A498 renal and with OVCAR-3 ovarian was over 100000 nM throughout.

In the case of `Oc1c(I)cc(-c2nc3ccccc3s2)cc1CN(Cc1ccccn1)Cc1ccccn1`, the GI50 is 928 nM in the assay with OVCAR-5 ovarian; 231 nM with OVCAR-4 ovarian; 267 nM in the assay on U251 CNS; 1610 nM in the assay on HS 578T breast; 668 nM in the assay with HT29 colon; 1080 nM in the assay with RXF 393 renal. Further, the GI50 in the assay on NCI-H226 lung was 269 nM; in the assay with HCT-15 colon it was 379 nM; with A498 renal it was 484 nM; with OVCAR-3 ovarian it was 534 nM. Also, the TGI in the assay with OVCAR-5 ovarian came to 53200 nM; in the assay with OVCAR-4 ovarian it was 5580 nM; in the assay on U251 CNS it was 12900 nM; in the assay on HS 578T breast, 93000 nM; in the assay with HT29 colon, 27600 nM; in the assay on RXF 393 renal, 5610 nM. The concentration for total growth inhibition (TGI) with NCI-H226 lung is 3160 nM; with HCT-15 colon, over 100000 nM; in the assay on A498 renal, 4810 nM; in the assay with OVCAR-3 ovarian, 11700 nM.

As for `C[C@@H](Oc1ccc2[nH]nc(/C=C/c3cnn(CCO)c3)c2c1)c1c(Cl)cncc1Cl`, the GI50 in the assay on OVCAR-5 ovarian is 166 nM; with OVCAR-4 ovarian it was 1890 nM; with U251 CNS it was 142 nM; in the assay with HS 578T breast, 106 nM; in the assay on HT29 colon, 171 nM; with RXF 393 renal it was 28.8 nM. Besides, the GI50 with NCI-H226 lung was 30.4 nM; in the assay with HCT-15 colon, 197 nM; with A498 renal it was under 10 nM; in the assay on OVCAR-3 ovarian, 462 nM. Also, the concentration for total growth inhibition (TGI) with OVCAR-5 ovarian was determined as 2290 nM; with OVCAR-4 ovarian it was 8780 nM; in the assay on U251 CNS, 2410 nM; in the assay on HS 578T breast it was 681 nM; in the assay with HT29 colon it was 681 nM; with RXF 393 renal, 267 nM. Besides, the figures for the concentration for total growth inhibition (TGI) with HCT-15 colon, with A498 renal and in the assay on OVCAR-3 ovarian were 8380 nM, 274 nM and 3560 nM, respectively.

With `C1=C(c2ccccc2)C(c2ccc(OCCN3CCCCC3)cc2)Oc2ccccc21` (centres undefined), the GI50 in the assay on OVCAR-5 ovarian is 1610 nM; in the assay with OVCAR-4 ovarian, 2370 nM; with U251 CNS, 1650 nM; in the assay with HS 578T breast, 2180 nM; with HT29 colon, 1760 nM; in the assay on RXF 393 renal, 1610 nM. Besides, the GI50 in the assay with NCI-H226 lung is 4080 nM; with HCT-15 colon, 1500 nM; in the assay on A498 renal, 1670 nM; with OVCAR-3 ovarian it was 1880 nM. The total growth inhibition concentration (TGI) amounted to 3290 nM in the assay with OVCAR-5 ovarian; 7090 nM with OVCAR-4 ovarian; 3180 nM in the assay with U251 CNS; 5230 nM in the assay with HS 578T breast; 3860 nM with HT29 colon; 3110 nM in the assay with RXF 393 renal. The concentration for total growth inhibition (TGI) in the assay with NCI-H226 lung came out at 16700 nM; in the assay with HCT-15 colon, 2990 nM; with A498 renal, 3170 nM; with OVCAR-3 ovarian, 4140 nM.

For `CC1SC(c2c(Cl)cccc2Cl)N(NC(=O)C(O)c2ccccc2)C1=O` (centres undefined), the GI50 is over 100000 nM in the assay on OVCAR-5 ovarian; over 100000 nM in the assay with OVCAR-4 ovarian; 54100 nM in the assay on U251 CNS; over 100000 nM with HS 578T breast; over 100000 nM in the assay with HT29 colon; 93200 nM with RXF 393 renal. The GI50 is over 100000 nM in the assay with NCI-H226 lung, 47300 nM with HCT-15 colon, 75700 nM in the assay with A498 renal and 54100 nM with OVCAR-3 ovarian. Besides, the total growth inhibition concentration (TGI) in the assay on OVCAR-5 ovarian, in the assay on OVCAR-4 ovarian, with U251 CNS, with HS 578T breast, in the assay on HT29 colon and with RXF 393 renal was over 100000 nM each time. Besides, the concentration for total growth inhibition (TGI) with NCI-H226 lung, with HCT-15 colon, in the assay with A498 renal and in the assay with OVCAR-3 ovarian was over 100000 nM throughout.

These data come from PubChem BioAssay (NCI).
